# Values joined by “and” are separate entries in the source; they are usually repeats but may differ in a detail not shown here. Equal values may be shown once.
# Tested on: alternative splicing of host transcripts in HeLa rtTA HIV∆Mls cells
# Test: RT-PCR of host alternative splicing events (PSI), capillary electrophoresis
# Type: cell-based
# Parameters: PSI ZNF827_1 / PSI RAN_1 / PSI SEC24B_1 / PSI SMN2_1 / PSI TRIM37_1 / PSI RPS24_1 / PSI PDCL_1 / PSI SMN2_2 / PSI SETD5_1 / PSI RAI14_1 / PSI TPM1_1 / PSI SPAG9_1 / PSI POLDIP3_1 / PSI SRPK2_1 / PSI POMT1_1: concentration or dose not given beside the values
# Experimental: To assess the effect of compounds on expression/alternative splicing of cellular RNA, two approaches were used. For both, total RNA was prepared from DMSO or compound-treated cells. In the first assay, samples were assayed by medium throughput RT-PCR to determine the inclusion levels of alternatively spliced exons and splice sites located in 73 selected events. 73 primer sets containing a fluorescently (5-FAM) labeled primer for each, were used in RT-PCR. PCR products generated were denatured in formamide and quantified using ABI Prism capillary sequencer (Life Technologies). The fragment analysis was performed on the PeakScanner software (Life Technologies) in batch mode and automated using custom scripts written in Python. The inclusion level of each exon was calculated as the amount of transcripts carrying the alternative exon relative to the total amount of all transcripts detected in the PCR reaction and results are summarized for compound-treatment in comparison to DMSO treatment. In the second assay, extracted RNA was processed using the Illumina TruSeq RNA Sample Preparation Kit (Illumina) according to the manufacturer’s instructions. The cDNA library generated was validated (passed quality control on a Bioanalyzer 1000 DNA chip (Agilent)), normalized and pooled for cluster generation. cDNA libraries were sequenced on the Illumina HiSeq 2500 (paired-end, 125 bp) with version 4 chemistry following manufacturer’s protocols. The full human genome and transcriptomic sequences were downloaded from the UCSC Genome Browser (genome.ucsc.edu) database and Ensembl (www.ensembl.org), respectively, as described by Irimia et al.. Exon annotations and genomic coordinates for alternative splicing (AS) analysis were derived from tables downloaded from the UCSC Genome Browser database. To determine gene expression (GE) or alternative splicing (AS) changes in an unbiased way, the effective number of unique mappable positions in each transcript (i.e. the effective length) was determined by aligning sequences with unique transcriptomic alignment to the human genome using Bowtie. Reads with one unique genomic alignment were then aligned against the canonical transcriptome and, for each transcript, the number of reads with one unique transcriptomic alignment were counted. The expression level of genes was quantified as corrected ‘reads per kilobase of exon model per million mapped reads’ (cRPKM), a widely used metric to estimate gene expression levels. The expression cutoff was 0.5 cRPKM, corresponding to the transcript of the gene being present if there were ≥10 reads that mapped uniquely to a single genomic locus. Approximately 19,847 Ensembl annotated protein-coding genes were compared to create a gene list of differentially expressed genes. Genes were considered differentially expressed if fold changes in cRPKM was ≥2 in compound-treated versus DMSO-treated samples.
structure (smiles),measurement,setting,value
"COc1ccc(C=NNC(=O)c2ccccc2O)cc1O [Compound 892, 2-hydroxy-N′-(3-hydroxy-4-methoxybenzylidene)benzohydrazide]",DPSI EIF4A2_1,"chr7:187988792-187988899, mean PSI 5193892 minus DMSO, n=3, P Value 0.014",13.67%
same,PSI EIF4A2_1,"chr7:187988899-187988904, HeLa rtTA-HIV-DMls cells, replicates 25, 26, 27",22.00 and 26.00 and 31.00
same,DPSI EIF4A2_1,"chr7:187988899-187988904, mean PSI 5193892 minus DMSO, n=3, P Value 0.035",8.33%
same,PSI PDCL_1,"chr9:124628716-124628892, HeLa rtTA-HIV-DMls cells, replicates 25, 26, 27",90.00 and 91.00 and 93.00
same,DPSI PDCL_1,"chr9:124628716-124628892, mean PSI 5193892 minus DMSO, n=3, P Value 0.152",1.67%
same,PSI GM130_1,"chr9:130069293-130069374, HeLa rtTA-HIV-DMls cells, replicates 25, 26, 27",23.00 and 18.00 and 15.00
same,DPSI GM130_1,"chr9:130069293-130069374, mean PSI 5193892 minus DMSO, n=3, P Value 0.007",-14.33%
same,PSI POMT1_1,"chr9:133368281-133368521, HeLa rtTA-HIV-DMls cells, replicates 25, 26, 27",50.00 and 37.00 and 28.00
same,DPSI POMT1_1,"chr9:133368281-133368521, mean PSI 5193892 minus DMSO, n=3, P Value 0.626",-4.00%
same,PSI POMT1_1,"chr9:133371321-133371428, HeLa rtTA-HIV-DMls cells, replicates 25, 26, 27",95.00 and 94.00 and 63.00
same,DPSI POMT1_1,"chr9:133371321-133371428, mean PSI 5193892 minus DMSO, n=3, P Value 0.627",-5.67%
same,PSI RPS24_1,"chr10:79467729-79467746, HeLa rtTA-HIV-DMls cells, replicates 25, 26, 27",8.00 and 13.00 and 12.00
same,DPSI RPS24_1,"chr10:79467729-79467746, mean PSI 5193892 minus DMSO, n=3, P Value 0.079",3.67%
same,PSI ADD3_1,"chr10:111882053-111882148, HeLa rtTA-HIV-DMls cells, replicates 25, 26, 27",42.00 and 60.00 and 62.00
same,DPSI ADD3_1,"chr10:111882053-111882148, mean PSI 5193892 minus DMSO, n=3, P Value 0.701",3.33%
same,PSI CTNND1_1,"chr11:57318058-57318129, HeLa rtTA-HIV-DMls cells, replicates 25, 26, 27",82.00 and 76.00 and 100.00
same,PSI APLP2_1,"chr11:129498717-129498884, HeLa rtTA-HIV-DMls cells, replicates 25, 26, 27",15.00 and 18.00 and 19.00
same,DPSI APLP2_1,"chr11:129498717-129498884, mean PSI 5193892 minus DMSO, n=3, P Value 0.009",-6.00%
same,PSI ERC1_1,"chr12:1091641-1091725, HeLa rtTA-HIV-DMls cells, replicates 25, 26, 27",36.00 and 55.00 and 52.00
same,PSI FGFR1OP2_1,"chr12:27004715-27004828, HeLa rtTA-HIV-DMls cells, replicates 25, 26, 27",22.00 and 15.00 (2×)
same,DPSI FGFR1OP2_1,"chr12:27004715-27004828, mean PSI 5193892 minus DMSO, n=3, P Value 0.030",-11.67%
same,PSI DNM1L_1,"chr12:32782066-32782143, HeLa rtTA-HIV-DMls cells, replicates 25, 26, 27",24.00 and 37.00 and 39.00
same,PSI DNM1L_1,"chr12:32782465-32782497, HeLa rtTA-HIV-DMls cells, replicates 25, 26, 27",38.00 and 52.00 and 53.00
same,DPSI DNM1L_1,"chr12:32782465-32782497, mean PSI 5193892 minus DMSO, n=3, P Value 0.447",-5.67%
same,PSI NAP1L1_1,"chr12:74747418-74747520, HeLa rtTA-HIV-DMls cells, replicates 25, 26, 27",76.00 and 78.00 and 83.00
same,DPSI NAP1L1_1,"chr12:74747418-74747520, mean PSI 5193892 minus DMSO, n=3, P Value 0.123",-5.67%
same,PSI NAP1L1_1,"chr12:74748956-74749041, HeLa rtTA-HIV-DMls cells, replicates 25, 26, 27",76.00 and 75.00 and 79.00
same,DPSI NAP1L1_1,"chr12:74748956-74749041, mean PSI 5193892 minus DMSO, n=3, P Value 0.018",-7.00%
same,PSI MVK_1,"chr12:108501990-108502134, HeLa rtTA-HIV-DMls cells, replicates 25, 26, 27",78.00 and 100.00 (2×)
same,DPSI MVK_1,"chr12:108501990-108502134, mean PSI 5193892 minus DMSO, n=3, P Value 0.179",16.00%
same,PSI MVK_1,"chr12:108503583-108503738, HeLa rtTA-HIV-DMls cells, replicates 25, 26, 27",64.00 and 74.00 and 45.00
same,DPSI MVK_1,"chr12:108503583-108503738, mean PSI 5193892 minus DMSO, n=3, P Value 0.477",8.33%
same,PSI RAN_1,"chr12:129923082-129923127, HeLa rtTA-HIV-DMls cells, replicates 25, 26, 27",93.00 (2×) and 94.00
same,DPSI RAN_1,"chr12:129923082-129923127, mean PSI 5193892 minus DMSO, n=3, P Value 0.018",-4.67%
same,PSI MBNL2_1,"chr13:96807051-96807104, HeLa rtTA-HIV-DMls cells, replicates 25, 26, 27",11.00 and 30.00 and 29.00
same,DPSI MBNL2_1,"chr13:96807051-96807104, mean PSI 5193892 minus DMSO, n=3, P Value 0.187",10.33%
